Assay results from patent publication US9499551B2, “Substituted pyrrolo[2,3-b]pyridines for treating cancer or inflammatory diseases” (Confluence Life Sciences, Inc., priority 2014, dated 2016).

Assays:
TAK1-TAB1 = biological target: T1, TAK1-TAB1 (Homo sapiens, UniProt O43318); assay: TAK1-TAB1 binding inhibitory potency (LanthaScreen competitive binding assay, kinase tracer-236); conditions: 10 nM TAK1-TAB1, 100 nM kinase tracer-236; read-out: TAK1-Tab Inhibition IC50
T1 sequence (O43318 with tags, fused parts or gaps limits assumed): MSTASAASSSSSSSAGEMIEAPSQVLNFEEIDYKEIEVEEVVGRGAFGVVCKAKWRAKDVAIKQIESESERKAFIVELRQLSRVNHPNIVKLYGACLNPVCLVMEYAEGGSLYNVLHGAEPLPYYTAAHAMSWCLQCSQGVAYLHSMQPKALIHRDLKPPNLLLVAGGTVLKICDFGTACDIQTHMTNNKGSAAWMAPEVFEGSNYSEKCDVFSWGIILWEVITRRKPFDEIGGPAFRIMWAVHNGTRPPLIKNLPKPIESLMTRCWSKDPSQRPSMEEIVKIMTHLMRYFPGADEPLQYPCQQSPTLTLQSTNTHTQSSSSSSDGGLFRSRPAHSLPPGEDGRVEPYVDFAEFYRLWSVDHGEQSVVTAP
How it was run: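 Compounds were tested for TAK1-TAB1 binding in a 384-well LanthaScreen competitive FRET assay. TAK1-TAB1 (10 nM) and Eu-anti-his antibody (2 nM) were preincubated with compound for two hours before adding 100 nM Alexa Fluor 647 kinase tracer-236. The buffer was 20 mM HEPES pH 7.5, 10 mM MgCl2, 0.01% BSA, 0.0005% Tween-20 and 2% DMSO. IC50 came from 4-parameter logistic fits of emission ratio over an 11-point series from 20 μM to 0.34 nM.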

[1] = test system: IL-6 Production in Human Peripheral Blood Mononuclear Cells (PBMC); assay: LPS stimulated IL-6 production in PBMC cells; type: cell-based; conditions: read-out: IL-6 Production Inhibition IC50
Procedure: LPS Stimulated IL-6 Production in PBMC Cells:
Lipopolysaccharide (LPS) stimulated IL-6 Production in Human Peripheral Blood Mononuclear Cells (PBMC): The cellular efficacy of compound candidates is determined using peripheral blood mononuclear cells purified from human whole blood, based upon the methods of Burnette et al. (2009) Pharmacology, 84:42-60. PBMC produce a number of cytokines (IL6, IL8, IL1β and TNFα) in response to stimulation with LPS. To induce the production of inflammatory mediators, PBMC are plated at a final concentration of 2×10^5 cells/well in a 96 well flat bottom plate in DMEM medium supplemented with 10% fetal bovine serum, 100 units/ml penicillin and 100 μg/ml streptomycin (Gibco BRL Life Technologies). Cells are treated with or without inhibitors for 1-3 hrs then stimulated with 100 ng/ml LPS (serotype 011:B4, Sigma) for an additional 3 hrs at 37° C. with 5% CO2. The supernatants are removed and stored at −20° C. until they are to be assayed. The levels of inflammatory mediators are determined using commercial MSD cytokine kits (Meso Scale Discovery) as per the manufacturer's instructions. Standard curves are based on 7 steps of 4× serial dilutions, with a wide dynamic range of 10000 pg/ml to 2.4 pg/ml, and a blank. Lower limit of detection (LLOD) is calculated at the commonly used 3× the standard deviation of the blank.

Row | IC50 (TAK1-TAB1) [nM] | Structure (SMILES) | IC50 [1] [nM]
1 | ≤ 1000 | CC(C)(C)c1cc(-c2cnc3[nH]cc(/C=C/C(N)=O)c3c2)cc(C(C)(C)C)c1 [Example 258, (E)-3-(5-(3,5-di-tert-butylphenyl)-1H-pyrrolo[2,3-b]pyridin-3-yl)acrylamide] | ≤ 1000
2 | ≤ 1000 | N#Cc1ccc(-c2cnc3[nH]cc(/C=C/C(N)=O)c3n2)cn1 [Example 285, (E)-3-(2-(6-cyanopyridin-3-yl)-5H-pyrrolo[2,3-b]pyrazin-7-yl)acrylamide] | ≤ 1000
3 | ≤ 1000 | CC(C)Oc1ccc(-c2cnc3[nH]cc(/C=C/C(N)=O)c3n2)cn1 [Example 284, (E)-3-(2-(6-isopropoxypyridin-3-yl)-5H-pyrrolo[2,3-b]pyrazin-7-yl)acrylamide] | ≤ 1000
4 | ≤ 1000 | Cn1cc(-c2cnc3[nH]cc(/C=C/C(N)=O)c3c2)cn1 [Example 5, (E)-3-(5-(1-Methyl-1H-pyrazol-4-yl)-1H-pyrrolo[2,3-b]pyridin-3-yl)acrylamide] | ≤ 1000
5 | ≤ 1000 | CN1CCN(c2cc(-c3cnc4[nH]cc(/C=C/C(N)=O)c4c3)ccn2)CC1 [Example 273, (E)-3-(5-(2-(4-methylpiperazin-1-yl)pyridin-4-yl)-1H-pyrrolo[2,3-b]pyridin-3-yl)acrylamide] | ≤ 1000
6 | ≤ 1000 | CC(C)(O)CN1CCN(c2cnc3[nH]cc(/C=C/C(N)=O)c3c2)CC1 [Example 289, (E)-3-(5-(4-(2-hydroxy-2-methylpropyl)piperazin-1-yl)-1H-pyrrolo[2,3-b]pyridin-3-yl)acrylamide] | > 1000
7 | ≤ 1000 | CC(C)(C)OC(=O)N1CCN(c2cnc3[nH]cc(/C=C/C(N)=O)c3c2)CC1 [Example 266, (E)-tert-butyl 4-(3-(3-amino-3-oxoprop-1-en-1-yl)-1H-pyrrolo[2,3-b]pyridin-5-yl)piperazine-1-carboxylate] | ≤ 1000
8 | ≤ 1000 | CS(=O)(=O)c1ccc(-c2cnc3[nH]cc(/C=C/C(N)=O)c3c2)cc1 [Example 23, (E)-3-(5-(4-(methylsulfonyl)phenyl)-1H-pyrrolo[2,3-b]pyridin-3-yl)acrylamide] | > 1000
9 | ≤ 1000 | NC(=O)/C=C/c1c[nH]c2ncc(-c3ccc(F)cc3F)nc12 [Example 248, (E)-3-(2-(2,4-difluorophenyl)-5H-pyrrolo[2,3-b]pyrazin-7-yl)acrylamide] | ≤ 1000
10 | ≤ 1000 | CC(C)Oc1ccc(-c2cnc3[nH]cc(/C=C/C(N)=O)c3c2)cn1 [Example 260, (E)-3-(5-(6-isopropoxypyridin-3-yl)-1H-pyrrolo[2,3-b]pyridin-3-yl)acrylamide] | ≤ 1000
11 | ≤ 1000 | NC(=O)/C=C/c1c[nH]c2ncc(Cc3ccc(F)cc3F)cc12 [Example 275, (E)-3-(5-(2,4-difluorobenzyl)-1H-pyrrolo[2,3-b]pyridin-3-yl)acrylamide] | ≤ 1000
12 | ≤ 1000 | N#Cc1ccc(-c2cnc3[nH]cc(/C=C/C(N)=O)c3c2)cn1 [Example 261, (E)-3-(5-(6-cyanopyridin-3-yl)-1H-pyrrolo[2,3-b]pyridin-3-yl)acrylamide] | ≤ 1000
13 | ≤ 1000 | CC(C)(O)Cn1cc(-c2cnc3[nH]cc(/C=C/C(N)=O)c3c2)ccc1=O [Example 292, (E) -3-(5-(1-(2-hydroxy-2-methylpropyl)-6-oxo-1,6-dihydropyridin-3-yl)-1H-pyrrolo[2,3-b]pyridin-3-yl)acrylamide] | > 1000
14 | ≤ 1000 | N#C/C=C/c1c[nH]c2ncc(N3CCN(C(=O)c4ccccc4)CC3)cc12 [Example 279, (E)-3-(5-(4-benzoylpiperazin-1-yl)-1H-pyrrolo[2,3-b]pyridin-3-yl)acrylonitrile] | > 1000
15 | ≤ 1000 | CSc1ncc(-c2cnc3[nH]cc(/C=C/C(N)=O)c3c2)cn1 [Example 287, (E)-3-(5-(2-(methylthio)pyrimidin-5-yl)-1H-pyrrolo[2,3-b]pyridin-3-yl)acrylamide] | ≤ 1000
16 | ≤ 1000 | NC(=O)/C=C/c1c[nH]c2ncc(Cc3ccc(F)cc3)cc12 [Example 274, (E)-3-(5-(4-fluorobenzyl)-1H-pyrrolo[2,3-b]pyridin-3-yl)acrylamide] | ≤ 1000

Row | IC50 (TAK1-TAB1) [nM] | Structure (SMILES) | IC50 [1] [nM]
17 | > 1000 | CC(C)(C)C(=O)NC1CN(c2cnc3[nH]cc(/C=C/C(N)=O)c3c2)C1 [Example 282, (E)-3-(5-(3-pivalamidoazetidin-1-yl)-1H-pyrrolo[2,3-b]pyridin-3-yl)acrylamide] | > 1000
18 | ≤ 1000 | COc1ccc(-c2cnc3[nH]cc(/C=C/C(N)=O)c3c2)cn1 [Example 20, (E)-3-(5-(6-methoxypyridin-3-yl)-1H-pyrrolo[2,3-b]pyridin-3-yl)acrylamide] | ≤ 1000
19 | ≤ 1000 | NC(=O)/C=C/c1c[nH]c2ncc(N3CCN(C(=O)c4ncc(F)cc4F)CC3)cc12 [Example 288, (E)-3-(5-(4-(3,5-difluoropicolinoyl)piperazin-1-yl)-1H-pyrrolo[2,3-b]pyridin-3-yl)acrylamide] | > 1000
20 | ≤ 1000 | CC1CCN(C(=O)c2ccc(-c3cnc4[nH]cc(/C=C/C(N)=O)c4c3)cn2)CC1 [Example 265, (E)-3-(5-(6-(4-methylpiperidine-1-carbonyl)pyridin-3-yl)-1H-pyrrolo[2,3-b]pyridin-3-yl)acrylamide] | > 1000
21 | ≤ 1000 | NC(=O)/C=C/c1c[nH]c2ncc(N3CC(NC(=O)c4ccccc4)C3)cc12 [Example 298, (E)-N-(1-(3-(3-amino-3-oxoprop-1-en-1-yl)-1H-pyrrolo[2,3-b]pyridin-5-yl)azetidin-3-yl)benzamide] | ≤ 1000
22 | ≤ 1000 | CC(=O)c1cccc(-c2cnc3[nH]cc(/C=C/C(N)=O)c3c2)c1 [Example 244, (E)-3-(5-(3-acetylphenyl)-1H-pyrrolo[2,3-b]pyridin-3-yl)acrylamide] | ≤ 1000
23 | ≤ 1000 | Cn1cc(-c2cnc3[nH]cc(/C=C/C(N)=O)c3n2)cn1 [Example 6, (E)-3-(2-(1-Methyl-1H-pyrazol-4-yl)-5H-pyrrolo[2,3-b]pyrazin-7-yl)acrylamide] | ≤ 1000
24 | ≤ 1000 | CC(C)N1CCN(C(=O)c2ccc(-c3cnc4[nH]cc(/C=C/C(N)=O)c4c3)cc2)CC1 [Example 268, (E)-3-(5-(4-(4-isopropyl-piperazine-1-carbonyl)phenyl)-1H-pyrrolo[2,3-b]pyridin-3-yl)acrylamide] | ≤ 1000
25 | ≤ 1000 | NC(=O)/C=C/c1c[nH]c2ncc(-c3ccc(C(F)(F)F)cc3)cc12 [Example 252, (E)-3-(5-(4-(trifluoromethyl)phenyl)-1H-pyrrolo[2,3-b]pyridin-3-yl)acrylamide] | ≤ 1000
26 | ≤ 1000 | CC(=O)/C=C/C(=O)Nc1c[nH]c2ncc(-c3ccccc3)cc12 [Example 240, (E)-4-oxo-N-(5-phenyl-1H-pyrrolo[2,3-b]pyridin-3-yl)pent-2-enamide] | ≤ 1000
27 | ≤ 1000 | NC(=O)/C=C/c1c[nH]c2ncc(-c3ccc(F)cc3F)cc12 [Example 2, (E)-3-(5-(2,4-Difluorophenyl)-1H-pyrrolo[2,3-b]pyridin-3-yl)acrylamide] | ≤ 1000
28 | ≤ 1000 | CC(C)(O)c1cccc(-c2cnc3[nH]cc(/C=C/C(N)=O)c3c2)c1 [Example 246, (E)-3-(5-(3-(2-hydroxypropan-2-yl)phenyl)-1H-pyrrolo[2,3-b]pyridin-3-yl)acrylamide] | ≤ 1000
29 | ≤ 1000 | COc1ccc(-c2cnc3[nH]cc(/C=C/C(N)=O)c3c2)cc1 [Example 12, (E)-3-(5-(4-Methoxyphenyl)-1H-pyrrolo[2,3-b]pyridin-3-yl)acrylamide] | ≤ 1000
30 | ≤ 1000 | NC(=O)/C=C/c1c[nH]c2ncc(-c3ccccc3)cc12 [Example 1, 3-(5-Phenyl-1H-pyrrolo[2,3-b]pyridin-3-yl)-acrylamide] | ≤ 1000
31 | ≤ 1000 | C[C@@H](O)C(=O)N1CCN(c2cnc3[nH]cc(/C=C/C(N)=O)c3c2)CC1 [Example 277, (R,E)-3-(5-(4-(2-hydroxypropanoyl)piperazin-1-yl)-1H-pyrrolo[2,3-b]pyridine-3-yl)acrylamide] | > 1000
